Earlier results, collected in US8501405B2, “Real-time sequencing methods and systems” (Pacific Biosciences of California, Inc., priority 2009, dated 2013).
Read-outs that look alike come from different tables or passages of the source.

Experiments:
[1] = DNA polymerases with reverse transcriptase activity; available values for DNA-dependent DNA polymerization
[2] = not given; remark: listed apart in the source
[3] = not given; remark: listed apart in the source
[4] = DNA polymerases with reverse transcriptase activity, available values for DNA-dependent DNA polymerization
[5] = reverse transcriptases and RNA-dependent RNA polymerases, * wild-type or published mutants

## phi29: DNA polymerase with reverse transcriptase activity
[1]
  Activity with phospholinked nucleotides: yes
[4]
  Processivity (bases): >70,000 bases
[2]; [4]
  Strand-displacement DNA synthesis: yes
[3]; [4]
  Maximum speed (bases/s): 100 bases/s

## E. coli pol I: DNA polymerase with reverse transcriptase activity
[4]
  Processivity (bases): ~50 bases
[2]; [4]
  Strand-displacement DNA synthesis: yes (degrades
[3]; [4]
  Maximum speed (bases/s): 17 bases/s

B1: phi6: RNA-dependent RNA polymerase (protein, UniProt P11124 2-665, looked up)
RNA-directed RNA polymerase: PRRAPAFPLSDIKAQMLFANNIKAQQASKRSFKEGAIETYEGLLSVDPRFLSFKNELSRYLTDHFPANVDEYGRVYGNGVRTNFFGMRHMNGFPMIPATWPLASNLKKRADADLADGPVSERDNLLFRAAVRLMFSDLEPVPLKIRKGSSTCIPYFSNDMGTKIEIAERALEKAEEAGNLMLQGKFDDAYQLHQMGGAYYVVYRAQSTDAITLDPKTGKFVSKDRMVADFEYAVTGGEQGSLFAASKDASRLKEQYGIDVPDGFFCERRRTAMGGPFALNAPIMAVAQPVRNKIYSKYAYTFHHTTRLNKEEKVKEWSLCVATDVSDHDTFWPGWLRDLICDELLNMGYAPWWVKLFETSLKLPVYVGAPAPEQGHTLLGDPSNPDLEVGLSSGQGATDLMGTLLMSITYLVMQLDHTAPHLNSRIKDMPSACRFLDSYWQGHEEIRQISKSDDAILGWTKGRALVGGHRLFEMLKEGKVNPSPYMKISYEHGGAFLGDILLYDSRREPGSAIFVGNINSMLNNQFSPEYGVQSGVRDRSKRKRPFPGLAWASMKDTYGACPIYSDVLEAIERCWWNAFGESYRAYREDMLKRDTLELSRYVASMARQAGLAELTPIDLEVLADPNKLQYKWTEADVSANIHEVLMHGVSVEKTERFLRSVMPR
[5]
  Processivity (bases): 13,500 bases
[2]; reverse transcriptases and RNA-dependent RNA polymerases
  Strand-displacement DNA synthesis: yes
[3]; [5]
  Maximum speed (bases/s): 120 bases/s

B2: Thermus thermophilus: DNA polymerase with reverse transcriptase activity (protein, UniProt P52028 1-834, looked up)
DNA polymerase I, thermostable: MEAMLPLFEPKGRVLLVDGHHLAYRTFFALKGLTTSRGEPVQAVYGFAKSLLKALKEDGYKAVFVVFDAKAPSFRHEAYEAYKAGRAPTPEDFPRQLALIKELVDLLGFTRLEVPGYEADDVLATLAKKAEKEGYEVRILTADRDLYQLVSDRVAVLHPEGHLITPEWLWEKYGLRPEQWVDFRALVGDPSDNLPGVKGIGEKTALKLLKEWGSLENLLKNLDRVKPENVREKIKAHLEDLRLSLELSRVRTDLPLEVDLAQGREPDREGLRAFLERLEFGSLLHEFGLLEAPAPLEEAPWPPPEGAFVGFVLSRPEPMWAELKALAACRDGRVHRAADPLAGLKDLKEVRGLLAKDLAVLASREGLDLVPGDDPMLLAYLLDPSNTTPEGVARRYGGEWTEDAAHRALLSERLHRNLLKRLEGEEKLLWLYHEVEKPLSRVLAHMEATGVRLDVAYLQALSLELAEEIRRLEEEVFRLAGHPFNLNSRDQLERVLFDELRLPALGKTQKTGKRSTSAAVLEALREAHPIVEKILQHRELTKLKNTYVDPLPSLVHPRTGRLHTRFNQTATATGRLSSSDPNLQNIPVRTPLGQRIRRAFVAEAGWALVALDYSQIELRVLAHLSGDENLIRVFQEGKDIHTQTASWMFGVPPEAVDPLMRRAAKTVNFGVLYGMSAHRLSQELAIPYEEAVAFIERYFQSFPKVRAWIEKTLEEGRKRGYVETLFGRRRYVPDLNARVKSVREAAERMAFNMPVQGTAADLMKLAMVKLFPRLREMGARMLLQVHDELLLEAPQARAEEVAALAKEAMEKAYPLAVPLEVEVGMGEDWLSAKG
[4]
  Processivity (bases): 300 bases
[3]; [4]
  Maximum speed (bases/s): 120 bases/s
